# Patent US11485891B2, “Products and methods for the treatment of mixtures of water and hydrophobic liquids” (B.C. RESEARCH INC., priority 2018, dated 2022)
# How the values were obtained:
# [1] = Herding (slick retraction) of oil already spread on water; conditions: aqueous solution of herder applied to spread oil; images at 1, 5, 10 and 20 minutes
# Text: When an oil (e.g., dilbit) is applied to water in a pan, the oil spreads to cover the surface of the water. Application of FA-AA as a salt (e.g., Li, Na or K salts) dissolved in water results in contraction of the oil layer. The pooled oil has reduced surface area and greater slick thickness. This is illustrated in FIG. 9A-E where a solution of the salt of a FA-AA is applied to an aliquot of oil which has been allowed to spread in a pan (FIG. 9A). Application of the aqueous herder solution results in contraction of the slick over time. Images taken at 1, 5, 10 and 20 minutes are shown in FIGS. 9B, 9C, 9D and 9E respectively.
# Alternatively, an oil was applied to water in a pan and allowed to spread. A herder (e.g. L-phenylalanine, N-(1-oxotetradecyl)-, sodium salt) was applied to the water to retract the slick (i.e. decrease surface area while increasing the thickness/depth of the oil layer). Overhead photography was used to capture the herding process. The images were processed to determine the area of the slick and allow for calculation of the slick thickness (FIG. 9).
# [2] = Reduction of oil adhesion on glass beads conditioned with aqueous herder solution; conditions: beads conditioned 1 hour, in oil 1 hour
# Method: Glass bead were used as a model substrate. The beads were weighed and transferred into a pre-weighed 60 mL plastic syringe. The beads were immersed in an aqueous solution of herder, C14-L-Phe-COONa, for 1 hour. An oil layer of conventional crude oil was added to the surface of the herder solution above the glass beads. The oil was lowered hydrostatically to immerse the beads in oil for 1 hour after which the oil was raised hydrostatically above the level of the beads. The water above the oil and beads were both removed. The mass of the oil retained on the glass beads was calculated as the difference between the mass of the oil-coated beads and the initial mass of the beads.
# [3] = Method: The herder L-phenylalanine, N-(1-oxotetradecyl)-, sodium salt and the gellant oleic-β-alaninamide were assessed for biodegradability in using OECD 301F guideline, manometric respirometer test.
# [4] = Herder activity: slick thickness of oil added to water pre-dosed with herder
# Method: The herder formulation was pre-dosed into 1 L of water in a flat glass pan under which was a 1×1 cm grid. A known volume of oil was applied to the pre-dosed water. A digital photo of the oil slick was recorded. The image was processed using ImageJ in order to calculate the area of the slick. Since volume and area are known, it is possible to calculate the thickness of the slick as a function of herder dosing. Compounds that maximize the thickness of the slick are considered better oil-herders.
# Stearoyl alanine was dissolved in isopropyl alcohol. An aliquot of this solution was added to 1 L of water in a pan. The final dosage of stearoyl alanine was 0.77 mg in 1 L of water. Dilbit (2.27 g) was added. An overhead digital photo was taken of the oil after 10 minutes. The photo was analyzed to determine the area of the oil which could be used to calculate the thickness of the oil layer. The oil slick was determined to be 2.9 mm thick.
# Silsurf, (trademark) a commercial herder added to 1 L of water in a glass pan for a final dosing of 1 mg. Dilbit (1.61 g) was added to the water. An overhead digital photo was taken of the oil after 10 minutes. The photo was analyzed to determine the area of the oil which could be used to calculate the thickness of the oil layer. The oil slick was determined to be 2.0 mm thick.
# [5] = Bhattacharya et al., Chemical Communications p. 185, 2001; cited from earlier work
# [6] = Oil thickening, aqueous suspension delivery to dilbit-water mixture
# Method: Gellants which presented as fine powdery solids were suspended in water (4-5 mL). The suspension was sonicated to reduce the particle size if necessary. The suspension was added to a mixture of 1 mL oil to 4 mL water in a 20 mL vial. The vial was capped and the mixture agitated. Thickening of the oil, likely due to the formation of an emulsion, could be observed within 15 minutes.
# Four portions of prior art compound dodecanoyl-L-alanine of differing masses were weighed out and each suspended in 1 mL of water. These four suspensions were added to four separate 20 mL vials of 1:4 mL dilbit and water. […] Oil thickening was evaluated qualitatively.
# This experiment was repeated with dodecanoyl-β-alaninamide. Four portions of dodecanoyl-β-alaninamide of differing masses were weighed out and each suspended in 7 mL of water. These four suspensions were added to four separate 20 mL vials of 1:4 mL dilbit and water. […] Oil thickening was evaluated qualitatively.
# [7] = Gelling ability, solution phase (co-solvent) delivery to dilbit-water mixture
# Method: PSOGs were screened against dilbit, diesel and sunflower. The dilbit used in the Examples herein was prepared by dissolving bitumen in naphtha in a 65:35 ratio of bitumen to naphtha. A typical screening method utilized a 1:4 ratio of hydrophobic liquid to water (i.e., 1 mL oil product to 4 mL water) in a 20 mL vial. The gellant (22.5 mg) was dissolved in a carrier solvent, which was typically methanol, ethanol or isopropanol. Heat was applied to dissolve the solid if necessary. The gellant solution was transferred to the oil-water mixture and the vial was capped. Agitation was applied and the mixture allowed to settle. Gel formation typically presented as the formation of an oil pellet or a thickening of the oil phase.
# Four portions of the prior art compound dodecanoyl-L-alanine of differing masses were weighed out and each dissolved in 1 mL of isopropyl alcohol. These four solutions were added to four separate 20 mL vials of 1:4 mL dilbit and water. […] Gel formation was evaluated qualitatively.
# This procedure was repeated with dodecanoyl-β-alaninamide. Four portions of dodecanoyl-β-alaninamide of differing masses were weighed out and each dissolved in 1 mL of isopropyl alcohol. These four solutions were added to four separate 20 mL vials containing 1 mL dilbit and 4 mL water. […] Gel formation was evaluated qualitatively.
# [8] = Gelling activity using mixed organic solvent-water active suspension; conditions: 25 mg in 5 mL 2:3 1,4-butanediol and water, heated and cooled; added to 1:4 oil and seawater, gentle agitation
# Method: The gellant oleic-p-alaninamide (25 mg) was suspended in 5 mL of a mixed solvent system composed of 2:3 1,4-butanediol and water. The mixture was heated to dissolve the solids. Upon cooling, the gellant precipitates as a cotton-like mass.
# [9] = Gelling activity without organic solvent (active suspension in water); conditions: 25 mg in 5 mL water, heated and cooled; no organic solvent
# Method: The gellant oleic-β-alaninamide (25 mg) was suspended 5 mL of water which was dyed pink for visualization purposes. The mixture was heated to dissolve the gellant. Upon cooling, the gellant precipitated as a cotton-like mass which retains the water. […] Upon the addition of diesel, which has been dyed blue, the hydrophobic phase entered the gellant mass upon contact and displaced the dyed water (FIGS. 8B and 8C) to produce the gelled diesel.
molecule,measurement,setting,value
"CCCCCCCCCCCCCC(=O)N[C@@H](Cc1ccccc1)C(=O)[O-].[Na+] [L-phenylalanine, N-(1-oxotetradecyl)-, sodium salt]",Herding of dilbit (FIG. 9),[1],slick retraction
same,Average mass of conventional crude retained,[2]; herder concentration 0.086 g/L,1.9 g
same,Average mass of conventional crude retained,[2]; herder concentration 0.57 g/L,1.3 g
same,Average mass of conventional crude retained,[2]; herder concentration 2.9 g/L,1.6 g
same,Average mass of conventional crude retained,[2]; herder concentration 10 g/L,1.8 g
same,Biodegradability classification,[3],readily biodegradable
CCCCCCCCCCCCCCCCCC(=O)N[C@@H](C)C(=O)O [Stearoyl alanine],Oil slick thickness,"[4]; 0.77 mg in 1 L of water (from isopropyl alcohol solution), dilbit 2.27 g, photo after 10 minutes",2.9 mm
"CCCCCCCCCCCC(=O)N[C@@H](C)C(=O)O [dodecanoyl-L-alanine, reference compound]",Gelling ability,[5],gel various hydrophobic organic liquids including petrol
same,Dosing level at which the oil thickened (qualitative evaluation),"[6]; solid suspended in water, 1:4 mL dilbit and water, tested at 2.5, 1.25, 0.83 and 0.63% w/v relative to dilbit",did not thicken the oil at any of the dosing levels tested
same,Dosing ratio at which a gel formed (qualitative evaluation),"[7]; gellant in 1 mL isopropyl alcohol, 1 mL dilbit and 4 mL water, tested at 2.5, 1.25, 0.83 and 0.63% w/v relative to dilbit",2.5 % w/v
CCCCCCCC/C=C\CCCCCCCC(=O)NCCC(N)=O [oleic-β-alaninamide],Time to gelling of the oil phase,[8],less than 1 minute
same,Gelling of dyed diesel (FIG. 8),[9],gelled diesel
same,Biodegradability classification,[3],inherently biodegradable
CCCCCCCCCCCCCC(=O)N[C@@H](C)C(=O)[O-].[Na+] [sodium tetradecanoylalaninate],Behaviour of oil added to a pan of water pre-dosed with herder (FIG. 2),[4]; FA-AA salt pre-dosed into water,contraction of the oil slick
oleic alaninamide,State of dilbit after PSOG suspended in water (FIG. 3),[6]; dilbit and water,thickened state
same,State of dilbit after PSOG delivered as solution in a water-miscible solvent (FIG. 3),[7]; dilbit and water,gel pellet
